row,Compound,melting point [°C]
1,O=C(SC(Cn1ccnc1)c1ccc(Cl)cc1Cl)c1ccccc1 (stereo not drawn),115 to 116
2,Cc1ccc(Oc2ccc(C=O)cc2)c(O)c1,46 to 48
3,COC(=O)c1ccc(NC(=O)NCCCl)cc1,163 to 165
4,CCSc1nc2c(C)sc(C(=O)O)c2n1Cc1ccc(-c2ccccc2-c2n[nH]c(=O)n2C)cc1,181 to 182
5,C[C@H](NC(=O)[C@H](Cc1ccccc1)NC(=O)OCc1ccccc1)C(=O)O,160 to 164
6,NS(=O)(=O)c1ccc(C(=O)Nc2cn3cc(Cl)ccc3n2)cc1,> 320
7,NC(=O)Nc1ncc(-c2ccncc2)cn1,> 250
8,CCCCn1c(CO)nc2c(Cl)nc3ccccc3c21,184 to 185
9,CN(C)C=Nc1sc(C#N)c(Cl)c1C#N,226
10,CC1(C)CC(=O)Nc2ccc(-c3cc(F)cc(C#N)c3)cc21,249 to 250
11,CNS(=O)(=O)c1ccccc1Nc1nc(Nc2ccc3c(c2)CCCC(=O)N3C)ncc1Cl,175 to 177
12,O=C(NCCNCCNC(=O)C(F)(F)F)C(F)(F)F,68 to 70
13,CCCCc1cn(CCCC)c(=O)n1Cc1ccc(-c2ncccc2-c2nnn[nH]2)cc1,178 to 180
14,O=c1[nH]c2ncc(-c3cccc(-c4nnn[nH]4)c3)nc2n1CC1CCCCC1,248 to 250
15,COC1(c2nc3ccc(C)cc3s2)C=CC(=NS(=O)(=O)c2ccc(C)cc2)C=C1 (stereo not drawn),166 to 168
16,CCOC(=O)C(=CC1(OC)C=C2OCOC2=CC1)C(=O)OCC (stereo not drawn),118
17,COc1cc(C(=O)NC2CC(C)(C)N(C)C(C)(C)C2)ccc1-c1nc2cc(Cl)c(Cl)cc2n1C,178 to 180
18,O=C1NC(=O)c2c1c(-c1ccccc1)cc1c2c2cc(O)ccc2n1CC(O)CO (stereo not drawn),290 to 295
19,Cc1c2c(cc3c(=O)c4ccccc4oc13)CC(CO)O2 (stereo not drawn),242 to 243
20,COc1ccc(C)cc1-c1cc(F)cc2c1OC(CN)C2 (stereo not drawn),110 to 111
21,COc1cc(C=Cc2ccc(Cl)nn2)cc(OC)c1OC,162 to 164
22,CC(CCC(=O)O)(c1ccc(OCc2ccc3ccccc3n2)cc1)c1ccc(OCc2nc3ccccc3s2)cc1 (stereo not drawn),68 to 72
23,O=C(Nc1ccccc1)C1=C(N2CCCCC2)COC1=O,157 to 158
24,CCCCC(C(=O)O)C1=C(c2ccccc2)c2ccccc2OC1 (stereo not drawn),117 to 119
25,FC(F)c1ccccc1C=C1c2ccccc2CCc2ccccc21,13.3

row,Compound,melting point [°C]
1,OCC(O)CN1CCN(c2ccc(Cl)nn2)CC1 (stereo not drawn),126 to 128
2,CCOC(=O)c1nnc(S)n1Cc1ccc(OC)cc1,142 to 144
3,CCOC(=O)c1nccn1Cc1ccc(Cl)cc1[N+](=O)[O-],105 to 107
4,COCOc1cc(F)ccc1-c1cc(-c2cccc(N)c2)c(C#N)c(NC(=O)c2ccco2)n1,204 to 206
5,CC(=O)OCC(=O)c1cc(O)c(O)c([N+](=O)[O-])c1,166 to 168
6,CCOC(=O)c1cn(C2CC2)c2c(F)c(NCCO)c(F)c(F)c2c1=O,193 to 195
7,CC(=O)OCCCOc1cccc2cc(C#N)c(=O)oc12,132 to 135
8,CC(O)c1cncc(C2(O)CCN(CC34CC(c5ccccc53)c3ccccc34)CC2)c1 (stereo not drawn),177 to 183
9,COC(=O)c1ccccc1C=CC(=O)C=Cc1ccccc1C(=O)OC,221 to 223
10,O=c1c2cc(F)c(N3CCCC3)nc2n(-c2cccc(C(F)(F)F)c2)c(=O)n1O,136 to 138
11,Clc1ncc(-c2ccco2)cn1,134 to 136
12,Cc1cccc2cc(C(=O)N(C)C)c(C=CNc3ccc(F)cc3)nc12,172 to 173
13,CN1c2ccc(C=O)cc2CCC1c1ccccc1 (stereo not drawn),86 to 89
14,COC(=O)c1cc(NC(=O)Nc2ccc([N+](=O)[O-])cc2)cc(C(=O)OC)c1,193 to 195
15,CC(C)c1nc(-c2ccc(/C=C/C3(O)CN4CCC3CC4)cc2)no1 (stereo not drawn),142 to 144
16,CCCCOc1cc(CNCCCN2CCCCC2)cc(S(N)(=O)=O)c1Cc1ccccc1,98 to 101
17,CN1CCc2cc(C=O)sc2C(c2ccccc2)C1 (stereo not drawn),88
18,O=C(O)c1cccc(-c2ccc3c(c2)C(NCc2ccc(Cl)cc2Cl)CC3)c1 (stereo not drawn),190 to 191
19,Clc1cc(Cl)nc(NC2CCCC2)n1,48 to 52
20,c1ccc(OC2CN(C(c3ccccc3)c3ccccc3)C2)cc1,83 to 85
21,COc1cccc(-c2c(/C=C/C(=O)NCCCCc3cccnc3)ccc3ccc(OC)cc23)c1,108 to 110
22,O=C(O)c1c(O)cccc1-n1cccn1,175 to 179
23,O=C(NCCN(Cc1ccccc1)Cc1ccccc1)C1CCN(c2c(Cl)cncc2Cl)CC1,147 to 149
24,COc1ccc(/C=C/C(=O)Nc2ccccc2C(=O)OCC(=O)NCC(C)(C)S)cc1OC,148 to 150
25,O=C(O)[C@H](Cc1ccc([N+](=O)[O-])cc1)NC1=CC(=O)C12CCCCC2,120

row,Compound,melting point [°C]
1,Cc1c(NC(=O)c2ccc(-c3ccc(F)cc3)cc2)ccc2cc(CN3CCCC3)cnc12,220 to 222
2,COCn1ccc(C(=O)c2ccc(Cc3ccc(F)cc3)o2)c(O)c1=O,128 to 130
3,O=C(c1nc(-c2ccccc2)nc2ccccc12)N1CCCCC1,160
4,O=C(N[C@H]1CCc2ccc(O)cc2C1)[C@H](O)c1ccc(OCc2ccccc2)cc1,137 to 139
5,O=C1CN2Cc3ccc(OCCCC(=O)N(CCO)CCCCC4CCCCC4)cc3N=C2N1,113 to 114
6,CN1CCN(c2cccc3ccc(C(O)(c4ccccc4)c4ccccc4)cc23)CC1,218
7,CCCCCc1cc2c(cc1/C=C/c1ccc(C(=O)O)cc1)C(C)(C)CCC2(C)C,173 to 174
8,c1ccc(COc2cccc(-c3nc(COc4ccc(CCCn5ccnc5)cc4)co3)c2)cc1,112 to 113
9,CC(C)(C)OC(=O)Nc1ccc2[nH]c(C(=O)OCc3ccccc3)cc2c1,180 to 182
10,O=C(Nc1ccccc1C(=O)NCCc1ncc[nH]1)c1ccc(Cl)cc1Cl,178 to 186
11,CCCCNC(=O)[C@H](C)C[C@H](O)[C@H](CC1CCCCC1)NC(=O)[C@H](Cc1cscn1)NC(=O)[C@@H](CC(=O)N(C)Cc1ccccc1)Cc1ccc(OC)cc1,112 to 114
12,Cc1c(CCN(C)C)c2cc(S(=O)(=O)c3ccccc3)ccc2n1C,170 to 172
13,CCCCc1nc(=O)c2cc(C=O)ccc2[nH]1,242 to 244
14,O=C(Nc1c(Cl)cccc1Cl)c1cccc2cccnc12,168 to 169
15,O=C(O)CC(=O)Nc1ccc2c(c1)c(=O)[nH]c(=O)n2CCCCN1CCC(OC(c2ccccc2)c2ccccc2)CC1,166 to 168
16,COC(=O)C1CCCCc2c(-c3ccc(Cl)cc3)noc2C1 (stereo not drawn),65 to 69
17,COc1ccc(CCC(=O)C2CCC3C4CCc5cc(C(=O)O)ccc5C4CCC23C)cc1 (stereo not drawn),178 to 179
18,COc1cc2c(cc1Br)C(c1ccccc1Cl)=NC1=C(C)NNC1=N2,210 to 211
19,COc1ccc(N)c(OC)c1COc1cccc2ccc(C)nc12,208 to 210
20,O=C(CCCCCNC(=O)OCc1ccccc1)N[C@@H](Cc1ccccc1)C(=O)O,119 to 120
21,CC(C)=CCOC(C)C1CC=C2C3=C(CCC21C)C1(C)CCC(OC(=O)CCC(=O)O)C(C)(C)C1CC3 (stereo not drawn),60 to 67
22,CCOC(=O)C=Cc1ccc(Oc2ccc([N+](=O)[O-])cc2)c(Cl)c1Cl,145 to 146
23,CN(C)Cc1nc(CSCCNc2ncc(CC3CCCO3)c(=O)[nH]2)cs1 (stereo not drawn),118 to 123
24,COc1ccc(C(=O)c2sc(Nc3ccc(OCc4ccccc4)cc3)nc2N)cc1,222 to 224
25,CCCC1Sc2c(cc(OC)c(Cl)c2Cl)C1O (stereo not drawn),119 to 120

row,Compound,melting point [°C]
1,COCC(=O)Nc1cccc(C2(C3CCN(C(=O)c4ccc(O)cc4)CC3)N=C(N)N(C)C2=O)c1 (stereo not drawn),184 to 187
2,CCCCc1nc2c(N)nc3cccnc3c2n1CC(C)C,115 to 116
3,NCC(O)COc1cccc2c1=NC(=O)N=2 (stereo not drawn),188 to 190
4,CN(C)C(=O)c1ccc(C=CC(=O)c2cccc(OCc3ccc4ccc(Cl)cc4n3)c2)o1,141 to 142
5,CCOC(=O)NC(C(=O)NN(Cc1ccc(-c2cncs2)cc1)CC(O)C(Cc1ccccc1)NC(=O)C(NC(=O)OC)C(C)CC)C(C)C (stereo not drawn),200 to 203
6,O=C(O)c1ccc(O)c(Cl)c1Cl,200
7,CC(=O)NC(C(=O)NCc1cccnc1)c1ccco1 (stereo not drawn),172 to 174
8,CC1(C)CCC(C)(C)c2cc(-c3cc(I)ccc3-c3ccccc3)ccc21,120 to 122
9,COc1cc(C2=C(c3c[nH]c4cccnc34)C(=O)NC2=O)cc(OC)c1OC,274 to 275
10,COc1ccc2c(ccc3c4ccc(OC)cc4c(=O)n(-c4ccc(O[Si](C)(C)C(C)(C)C)cc4)c23)c1,211 to 213
11,COc1ccc(Sc2ccccc2CCl)cc1,76 to 78
12,O=C1C(=O)N(CCCCN2CCN(C(c3ccccc3)c3ccccc3)CC2)c2ccccc21,127 to 129
13,Cc1ccc(C2CC(=O)c3ccccc3N2)cc1 (stereo not drawn),144 to 146
14,CCCOC(=O)c1cc(NC(=O)c2ccccc2O)cc(Br)c1O,198 to 200
15,CC1(C)CCC(C)(C)c2cc(NCC(=O)O)ccc21,> 360
16,CNc1ccc2cnc(C(=O)c3ccc([N+](=O)[O-])c(C(=O)OC)c3)n2c1,183
17,Fc1ccc(-c2ccc(CCNc3ncnc4nccnc34)cc2)cn1,184 to 186
18,CSCCNC(=O)c1cccc(-c2cccc3c(C)c(Cc4cccc(C(F)(F)F)c4)oc23)c1,138 to 139
19,O=C(Cc1ccccc1)Nc1ccc2c(c1)C(=O)c1cc(NC(=O)Cc3ccccc3)ccc1C2=O,224
20,Cc1c(Br)ccc(O)c1C(=O)O,163 to 165
21,CCC[C@H](Oc1cc(C)c(-n2cc(C(F)(F)F)cn2)c(C)c1)c1ccc(C(=O)NCCC(=O)O)cc1,157 to 159
22,CNc1ncnc2c1ncn2C1CC(F)C(CO)O1 (stereo not drawn),100 to 103
23,Cc1ccc2[nH]c3c(c2c1)C(C(=O)OCc1ccccc1)CCC3 (stereo not drawn),115 to 117
